Laboratory results as given in patent publication US20240050428A1 (Cullgen (Shanghai), Inc., priority 2020, published 2024).
Like-named read-outs stand apart in the source and are kept apart here.

How the values were obtained:
[1] = system: MV4;11 cells; assay: Cell viability assay (CellTiter-Glo) in MV4;11 cells, alone or with gilteritinib; format: cell-based; details: Homo sapiens, MV4-11, 72 h, MV4;11 cells, three days, CellTiter-Glo, read-out: MV4
[2] = system: MOLM-13 cells; assay: Cell viability assay (CellTiter-Glo) in MOLM-13 cells, alone or with gilteritinib; format: cell-based; details: Homo sapiens, MOLM-13, 72 h, MOLM-13 cells, three days, CellTiter-Glo
[3] = compound alone (without gilteritinib), 11 IC50
[4] = with gilteritinib 10 nM, 11 IC50 gilteritinib
[5] = compound alone (without gilteritinib), read-out: MOLM-13 IC50
[6] = with gilteritinib 20 nM, read-out: MOLM-13 IC50 gilteritinib

SMILES | IC50 [1, 3] [nM] | IC50 [1, 4] [nM] | IC50 [2, 5] [nM] | IC50 [2, 6] [nM]
O=C1CCC(N2Cc3ccc(CCCC(=O)N4CCC(n5cc(-c6cnc7ccccc7n6)cn5)CC4)cc3C2=O)C(=O)N1 (centres unmarked) [GS-158, 3-(1-Oxo-6-(4-oxo-4-(4-(4-(quinoxalin-2-yl)-1H-pyrazol-1-yl)piperidin-1-yl)butyl)isoindolin-2-yl)piperidine-2,6-dione] | > 1000 | > 1000 | > 1000 | > 1000
O=C1CCC(N2Cc3ccc(CCCC(=O)N4CCC(n5cc(-c6ccc7ccccc7n6)cn5)CC4)cc3C2=O)C(=O)N1 (centres unmarked) [GS-159, 3-(1-Oxo-6-(4-oxo-4-(4-(4-(quinolin-2-yl)-1H-pyrazol-1-yl)piperidin-1-yl)butyl)isoindolin-2-yl)piperidine-2,6-dione] | > 1000 | > 1000 | > 1000 | > 1000
O=C1CCC(N2Cc3ccc(CCCCC(=O)N4CCC(n5cc(-c6ccc7ccccc7n6)cn5)CC4)cc3C2=O)C(=O)N1 (centres unmarked) [GS-160, 3-(1-Oxo-6-(5-oxo-5-(4-(4-(quinolin-2-yl)-1H-pyrazol-1-yl)piperidin-1-yl)pentyl)isoindolin-2-yl)piperidine-2,6-dione] | 100 to 1000 | 10 to 100 | > 1000 | 10 to 100
O=C1CCC(N2Cc3ccc(CCCCC(=O)N4CCC(n5cc(-c6cnc7ccccc7n6)cn5)CC4)cc3C2=O)C(=O)N1 (centres unmarked) [GS-161, 3-(1-Oxo-6-(5-oxo-5-(4-(4-(quinoxalin-2-yl)-1H-pyrazol-1-yl)piperidin-1-yl)pentyl)isoindolin-2-yl)piperidine-2,6-dione] | 100 to 1000 | 10 to 100 | > 1000 | 10 to 100
O=C1CCC(N2Cc3cc(NCc4cccc(N5CCC(n6cc(-c7cnc8ccccc8n7)cn6)CC5)c4)ccc3C2=O)C(=O)N1 (centres unmarked) [GS-162, 3-(1-Oxo-5-((3-(4-(4-(quinoxalin-2-yl)-1H-pyrazol-1-yl)piperidin-1-yl)benzyl)amino)isoindolin-2-yl)piperidine-2,6-dione] | > 1000 | > 1000 | > 1000 | 10 to 100
Cc1nn(C2CC(CCCNc3ccc4c(c3)C(=O)N(C3CCC(=O)NC3=O)C4=O)C2)c(C)c1-c1cnc2ccccc2n1 (centres unmarked) [GS-167, 5-((3-(3-(3,5-Dimethyl-4-(quinoxalin-2-yl)-1H-pyrazol-1-yl)cyclobutyl)propyl)amino)-2-(2,6-dioxopiperidin-3-yl)isoindoline-1,3-dione] | > 1000 | 100 to 1000 | > 1000 | < 10
Cc1nn([C@H]2C[C@@H](CCCNc3ccc4c(c3)C(=O)N(C3CCC(=O)NC3=O)C4=O)C2)cc1-c1cnc2ccccc2n1 (stereo partly drawn) [GS-168, 2-(2,6-Dioxopiperidin-3-yl)-5-((3-(cis-3-(3-methyl-4-(quinoxalin-2-yl)-1H-pyrazol-1-yl)cyclobutyl)propyl)amino)isoindoline-1,3-dione] | 100 to 1000 | 10 to 100 | > 1000 | 10 to 100
Cc1c(-c2cnc3ccccc3n2)cnn1[C@H]1C[C@@H](CCCNc2ccc3c(c2)C(=O)N(C2CCC(=O)NC2=O)C3=O)C1 (stereo partly drawn) [GS-169, 2-(2,6-Dioxopiperidin-3-yl)-5-((3-(cis-3-(5-methyl-4-(quinoxalin-2-yl)-1H-pyrazol-1-yl)cyclobutyl)propyl)amino)isoindoline-1,3-dione] | 100 to 1000 | > 1000 | > 1000 | 10 to 100
Cc1nn([C@H]2C[C@H](CCCNc3ccc4c(c3)C(=O)N(C3CCC(=O)NC3=O)C4=O)C2)cc1-c1cnc2ccccc2n1 (stereo partly drawn) [GS-171, 2-(2,6-Dioxopiperidin-3-yl)-5-((3-(trans-3-(3-methyl-4-(quinoxalin-2-yl)-1H-pyrazol-1-yl)cyclobutyl)propyl)amino)isoindoline-1,3-dione] | 10 to 100 | < 10 | 10 to 100 | < 10
O=C1CCC(N2C(=O)c3ccc(NC[C@H]4C[C@H](n5cc(-c6cnc7ccc(C8CCOCC8)cc7n6)cn5)C4)cc3C2=O)C(=O)N1 (stereo partly drawn) [GS-180, 2-(2,6-Dioxopiperidin-3-yl)-5-(((trans-3-(4-(7-(tetrahydro-2H-pyran-4-yl)quinoxalin-2-yl)-1H-pyrazol-1-yl)cyclobutyl)methyl)amino)isoindoline-1,3-dione] | 100 to 1000 | 10 to 100 | 100 to 1000 | 10 to 100

More lines, now with the values ahead:

IC50 [1, 3] [nM] | IC50 [1, 4] [nM] | IC50 [2, 5] [nM] | IC50 [2, 6] [nM] | SMILES
100 to 1000 | 10 to 100 | 100 to 1000 | < 10 | N#Cc1ccc2ncc(-c3cnn(CCCCCCNc4ccc5c(c4)C(=O)N(C4CCC(=O)NC4=O)C5=O)c3)nc2c1 (centres unmarked) [GS-163, 3-(1-(6-((2-(2,6-Dioxopiperidin-3-yl)-1,3-dioxoisoindolin-5-yl)amino)hexyl)-1H-pyrazol-4-yl)quinoxaline-6-carbonitrile]
100 to 1000 | 10 to 100 | 100 to 1000 | 10 to 100 | O=C1CCC(N2C(=O)c3ccc(NCCCC4CC(n5cc(-c6cnc7cccc(F)c7n6)cn5)C4)cc3C2=O)C(=O)N1 (centres unmarked) [GS-164, 2-(2,6-Dioxopiperidin-3-yl)-5-((3-(3-(4-(8-fluoroquinoxalin-2-yl)-1H-pyrazol-1-yl)cyclobutyl)propyl)amino)isoindoline-1,3-dione]
100 to 1000 | 10 to 100 | 100 to 1000 | 10 to 100 | N#Cc1cccc2ncc(-c3cnn(CCCCCCNc4ccc5c(c4)C(=O)N(C4CCC(=O)NC4=O)C5=O)c3)nc12 (centres unmarked) [GS-165, 3-(1-(6-((2-(2,6-Dioxopiperidin-3-yl)-1,3-dioxoisoindolin-5-yl)amino)hexyl)-1H-pyrazol-4-yl)quinoxaline-5-carbonitrile]
10 to 100 | < 10 | 10 to 100 | < 10 | Cc1nn(CCCCCCNc2ccc3c(c2)C(=O)N(C2CCC(=O)NC2=O)C3=O)c(C)c1-c1cnc2cccc(C#N)c2n1 (centres unmarked) [GS-166, 3-(1-(6-((2-(2,6-Dioxopiperidin-3-yl)-1,3-dioxoisoindolin-5-yl)amino)hexyl)-3,5-dimethyl-1H-pyrazol-4-yl)quinoxaline-5-carbonitrile]
> 1000 | 10 to 100 | > 1000 | 10 to 100 | Cc1c(-c2cnc3ccccc3n2)cnn1[C@H]1C[C@H](CCCNc2ccc3c(c2)C(=O)N(C2CCC(=O)NC2=O)C3=O)C1 (stereo partly drawn) [GS-170, 2-(2,6-Dioxopiperidin-3-yl)-5-((3-(trans-3-(5-methyl-4-(quinoxalin-2-yl)-1H-pyrazol-1-yl)cyclobutyl)propyl)amino)isoindoline-1,3-dione]
100 to 1000 | > 1000 | > 1000 | 100 to 1000 | CN1CCN(c2ccc3ncc(-c4cnn(C5CC(CCCNc6ccc7c(c6)C(=O)N(C6CCC(=O)NC6=O)C7=O)C5)c4)nc3c2)CC1 (centres unmarked) [GS-172, 2-(2,6-Dioxopiperidin-3-yl)-5-((3-(3-(4-(7-(4-methylpiperazin-1-yl)quinoxalin-2-yl)-1H-pyrazol-1-yl)cyclobutyl)propyl)amino)isoindoline-1,3-dione]
10 to 100 | 10 to 100 | 10 to 100 | < 10 | O=C1CCC(N2C(=O)c3ccc(NCCCC4CC(n5cc(-c6cnc7ccc(N8CCOCC8)cc7n6)cn5)C4)cc3C2=O)C(=O)N1 (centres unmarked) [GS-173, 2-(2,6-Dioxopiperidin-3-yl)-5-((3-(3-(4-(7-morpholinoquinoxalin-2-yl)-1H-pyrazol-1-yl)cyclobutyl)propyl)amino)isoindoline-1,3-dione]
100 to 1000 | 10 to 100 | > 1000 | < 10 | O=C1CCC(N2C(=O)c3ccc(NCCCC4CC(n5cc(-c6cnc7ccc(N8CCNCC8)cc7n6)cn5)C4)cc3C2=O)C(=O)N1 (centres unmarked) [GS-174, 2-(2,6-Dioxopiperidin-3-yl)-5-((3-(3-(4-(7-(piperazin-1-yl)quinoxalin-2-yl)-1H-pyrazol-1-yl)cyclobutyl)propyl)amino)isoindoline-1,3-dione]
100 to 1000 | 10 to 100 | 100 to 1000 | < 10 | N#Cc1ccc2ncc(-c3cnn(C4CC(CCCNc5ccc6c(c5)C(=O)N(C5CCC(=O)NC5=O)C6=O)C4)c3)nc2c1 (centres unmarked) [GS-175, 3-(1-(3-(3-((2-(2,6-Dioxopiperidin-3-yl)-1,3-dioxoisoindolin-5-yl)amino)propyl)cyclobutyl)-1H-pyrazol-4-yl)quinoxaline-6-carbonitrile]
100 to 1000 | 10 to 100 | 100 to 1000 | 10 to 100 | O=C1CCC(N2C(=O)c3ccc(NCCC[C@H]4C[C@H](n5cc(-c6cnc7ccccc7n6)cn5)C4)cc3C2=O)C(=O)N1 (stereo partly drawn) [GS-176, 2-(2,6-Dioxopiperidin-3-yl)-5-((3-(trans-3-(4-(quinoxalin-2-yl)-1H-pyrazol-1-yl)cyclobutyl)propyl)amino)isoindoline-1,3-dione]
> 1000 | 100 to 1000 | > 1000 | 10 to 100 | O=C1CCC(N2C(=O)c3ccc(NCCC[C@H]4C[C@@H](n5cc(-c6cnc7ccccc7n6)cn5)C4)cc3C2=O)C(=O)N1 (stereo partly drawn) [GS-177, 2-(2,6-Dioxopiperidin-3-yl)-5-((3-(cis-3-(4-(quinoxalin-2-yl)-1H-pyrazol-1-yl)cyclobutyl)propyl)amino)isoindoline-1,3-dione]
10 to 100 | 10 to 100 | 100 to 1000 | 10 to 100 | O=C1CCC(N2C(=O)c3ccc(NC[C@H]4C[C@H](n5cc(-c6cnc7ccccc7n6)cn5)C4)cc3C2=O)C(=O)N1 (stereo partly drawn) [GS-178, 2-(2,6-Dioxopiperidin-3-yl)-5-(((trans-3-(4-(quinoxalin-2-yl)-1H-pyrazol-1-yl)cyclobutyl)methyl)amino)isoindoline-1,3-dione]
> 1000 | > 1000 | > 1000 | 100 to 1000 | O=C1CCC(N2C(=O)c3ccc(NC[C@H]4C[C@@H](n5cc(-c6cnc7ccccc7n6)cn5)C4)cc3C2=O)C(=O)N1 (stereo partly drawn) [GS-179, 2-(2,6-Dioxopiperidin-3-yl)-5-(((cis-3-(4-(quinoxalin-2-yl)-1H-pyrazol-1-yl)cyclobutyl)methyl)amino)isoindoline-1,3-dione]
